In ChEMBL document CHEMBL6134781, “In vitro identification of oridonin hybrids as potential anti-TNBC agents inducing cell cycle arrest and apoptosis by regulation of p21, γH2AX and cleaved PARP” (RSC Med Chem, 2024):

How the values were obtained:
[1] = tested on: HCC1806; test: Cytotoxicity against human HCC1806 cells assessed as inhibition of cell viability incubated for 72 hrs by SRB assay; assay type: functional, cell-based; conditions: HCC1806, 72 h
[2] = tested on: MDA-MB-231; test: Cytotoxicity against human MDA-MB-231 cells assessed as inhibition of cell viability incubated for 72 hrs by SRB assay; assay type: functional, cell-based; conditions: MDA-MB-231, 72 h
[3] = Stability in human plasma assessed as half life at 100 uM by LC-MS/MS analysis; assay type: ADME, cell-free

| Compound | IC50 [1] [µM] | IC50 [2] [nM] | half-life at 100 µM [3] [min] |
| --- | --- | --- | --- |
| C=C1C(=O)[C@]23[C@H](OC(=O)C45CC6CC(CC(C6)C4)C5)[C@H]1CC[C@H]2[C@@]12CO[C@]3(O)[C@@H](O)[C@@H]1C(C)(C)CCC2=O | 1.91 | 1430 |  |
| C=C1C(=O)[C@]23[C@H](O)[C@H]1CC[C@H]2[C@]12C=CCC(C)(C)[C@H]1[C@H](O)[C@@]3(O)OC2 | 0.91 | 870 |  |
| C=C1C(=O)[C@@]23C(=O)[C@@H]4OC[C@]5([C@@H](OC(C)=O)CCC(C)(C)[C@@H]45)[C@@H]2CC[C@@H]1[C@H]3OC(=O)C12CC3CC(CC(C3)C1)C2 | 2.39 | 1410 |  |
| C=C1C(=O)[C@@]23C(=O)[C@@H]4OC[C@]5(C=CCC(C)(C)[C@@H]45)[C@@H]2CC[C@@H]1[C@H]3OC(=O)c1ccc(N(CCCl)CCCl)cc1 | 3.02 | 2210 |  |
| C=C1C(=O)[C@]23[C@H](OC(=O)Cc4ccccc4Br)[C@H]1CC[C@H]2[C@@]12CO[C@]3(O)[C@@H](O)[C@@H]1C(C)(C)CCC2=O | 7.12 | 3580 |  |
| C=C1C(=O)[C@]23[C@H](OC(=O)Cc4cc(OC)c(OC)c(OC)c4)[C@H]1CC[C@H]2[C@]12C=CCC(C)(C)[C@H]1[C@H](O)[C@@]3(O)OC2 | > 10 | > 10000 |  |
| C=C1C(=O)[C@]23[C@H](OC(=O)Cc4ccc(OC)cc4)[C@H]1CC[C@H]2[C@]12C=CCC(C)(C)[C@H]1[C@H](O)[C@@]3(O)OC2 | > 10 | > 10000 |  |
| C=C1C(=O)[C@]23[C@H](OC(=O)c4ccc(N(CCCl)CCCl)cc4)[C@H]1CC[C@H]2[C@]12C=CCC(C)(C)[C@H]1[C@H](O)[C@@]3(O)OC2 | 1.4 | 1090 |  |
| C=C1C(=O)[C@]23[C@H](O)[C@H]1CC[C@H]2[C@@]12CO[C@]3(O)[C@@H](O)[C@@H]1C(C)(C)CC[C@@H]2O [ORIDONIN] | 12.6 | 5310 | 86.8 |
| C=C1C(=O)[C@]23[C@H](OC(=O)Cc4cc(OC)c(OC)c(OC)c4)[C@H]1CC[C@H]2[C@@]12CO[C@]3(O)[C@@H](O)[C@@H]1C(C)(C)CCC2=O | > 10 | > 10000 |  |
| C=C1C(=O)[C@@]23C(=O)[C@@H]4OC[C@]5(C(=O)CCC(C)(C)[C@@H]45)[C@@H]2CC[C@@H]1[C@H]3OC(=O)Cc1ccc(OC)c(OC)c1 | 2.58 | 1810 |  |
| C=C1C(=O)[C@]23[C@H](OC(=O)Cc4ccc(N(CCCl)CCCl)cc4)[C@H]1CC[C@H]2[C@@]12CO[C@]3(O)[C@@H](O)[C@@H]1C(C)(C)CCC2=O | > 10 | 7290 |  |
| C=C1C(=O)[C@@]23C(=O)[C@@H]4OC[C@]5(C(=O)CCC(C)(C)[C@@H]45)[C@@H]2CC[C@@H]1[C@H]3OC(=O)Cc1ccccc1Br | > 10 | > 10000 |  |
| C=C1C(=O)[C@@]23C(=O)[C@@H]4OC[C@]5(C(=O)CCC(C)(C)[C@@H]45)[C@@H]2CC[C@@H]1[C@H]3OC(=O)c1ccc(N(CCCl)CCCl)cc1 | > 10 | 5700 |  |
| C=C1C(=O)[C@]23[C@H](OC(=O)Cc4ccc(OC)c(OC)c4)[C@H]1CC[C@H]2[C@@]12CO[C@]3(O)[C@@H](O)[C@@H]1C(C)(C)CCC2=O | > 10 | 8430 |  |
| C=C1C(=O)[C@]23[C@H](OC(=O)c4ccc(N(CCCl)CCCl)cc4)[C@H]1CC[C@H]2[C@@]12CO[C@]3(O)[C@@H](O)[C@@H]1C(C)(C)CCC2=O | 3.64 | 1720 |  |
| C=C1C(=O)[C@]23[C@H](OC(=O)C45CC6CC(CC(C6)C4)C5)[C@H]1CC[C@H]2[C@@]12CO[C@]3(O)[C@@H](O)[C@@H]1C(C)(C)CC[C@@H]2OC(C)=O | 1.48 | 550 |  |

| Compound | IC50 [1] [µM] | IC50 [2] [nM] | half-life at 100 µM [3] [min] |
| --- | --- | --- | --- |
| C=C1C(=O)[C@@]23C(=O)[C@@H]4OC[C@]5(C(=O)CCC(C)(C)[C@@H]45)[C@@H]2CC[C@@H]1[C@H]3OC(=O)Cc1ccc(N(CCCl)CCCl)cc1 | > 10 | 11400 |  |
| C=C1C(=O)[C@@]23C(=O)[C@@H]4OC[C@@]5([C@H]4C(C)(C)CC[C@@H]5O)[C@@H]2CC[C@@H]1[C@H]3OC(=O)C12CC3CC(CC(C3)C1)C2 | 2.13 | 1500 |  |
| C=C1C(=O)[C@]23[C@H](O)[C@H]1CC[C@H]2[C@@]12CO[C@]3(O)[C@@H](O)[C@@H]1C(C)(C)CCC2=O | 3.56 | 2070 |  |
| C=C1C(=O)[C@]23[C@H](OC(=O)c4ccc(N(CCCl)CCCl)cc4)[C@H]1CC[C@H]2[C@@]12CO[C@]3(O)[C@@H](O)[C@@H]1C(C)(C)CC[C@@H]2O | 1.32 | 1670 |  |
| C=C1C(=O)[C@@]23C(=O)[C@@H]4OC[C@]5(C(=O)CCC(C)(C)[C@@H]45)[C@@H]2CC[C@@H]1[C@H]3OC(=O)Cc1ccc(OC)cc1 | 4.6 | 3060 |  |
| C=C1C(=O)[C@]23[C@H](O)[C@H]1CC[C@H]2[C@@]12CO[C@@]3(O)[C@@H](O)[C@@H]1C(C)(C)CC[C@@H]2OC(C)=O | 2.68 | 2490 |  |
| C=C1C(=O)[C@@]23C(=O)[C@@H]4OC[C@]5(C=CCC(C)(C)[C@@H]45)[C@@H]2CC[C@@H]1[C@H]3OC(=O)C12CC3CC(CC(C3)C1)C2 | 5.51 | 3660 |  |
| C=C1C(=O)[C@]23[C@H](OC(=O)Cc4ccc(OC)cc4)[C@H]1CC[C@H]2[C@@]12CO[C@]3(O)[C@@H](O)[C@@H]1C(C)(C)CCC2=O | > 10 | > 10000 |  |
| C=C1C(=O)[C@]23[C@H](OC(=O)C45CC6CC(CC(C6)C4)C5)[C@H]1CC[C@H]2[C@]12C=CCC(C)(C)[C@H]1[C@H](O)[C@@]3(O)OC2 | 2.61 | 2420 |  |
| C=C1C(=O)[C@@]23C(=O)[C@@H]4OC[C@@]5([C@H]4C(C)(C)CC[C@@H]5O)[C@@H]2CC[C@@H]1[C@H]3OC(=O)c1ccc(N(CCCl)CCCl)cc1 | 1.61 | 1830 |  |
| C=C1C(=O)[C@]23[C@H](OC(=O)Cc4ccc(OC)c(OC)c4)[C@H]1CC[C@H]2[C@]12C=CCC(C)(C)[C@H]1[C@H](O)[C@@]3(O)OC2 | > 10 | > 10000 |  |
| C=C1C(=O)[C@@]23C(=O)[C@@H]4OC[C@]5(C=CCC(C)(C)[C@@H]45)[C@@H]2CC[C@@H]1[C@H]3O | 4.01 | 2780 |  |
| C=C1C(=O)[C@]23[C@H](OC(=O)/C=C/c4ccc(N(C)C)cc4)[C@H]1CC[C@H]2[C@@]12CO[C@]3(O)[C@@H](O)[C@@H]1C(C)(C)CCC2=O | 2.77 | 1790 |  |
| C=C1C(=O)[C@@]23C(=O)[C@@H]4OC[C@]5(C(=O)CCC(C)(C)[C@@H]45)[C@@H]2CC[C@@H]1[C@H]3OC(=O)C12CC3CC(CC(C3)C1)C2 | 5.59 | 3260 |  |
| C=C1C(=O)[C@@]23C(=O)[C@@H]4OC[C@]5(C=CCC(C)(C)[C@@H]45)[C@@H]2CC[C@@H]1[C@H]3OC(=O)Cc1cc(OC)c(OC)c(OC)c1 | 5.54 | 3820 |  |
| C=C1C(=O)[C@@]23C(=O)[C@@H]4OC[C@]5(C(=O)CCC(C)(C)[C@@H]45)[C@@H]2CC[C@@H]1[C@H]3OC(=O)Cc1cc(OC)c(OC)c(OC)c1 | 5.07 | 2600 |  |
